What follows are compounds tested against human GluN1/GluN2B NMDA receptors (Homo sapiens, UniProt Q05586+Q13224) (assay: Cell-based calcium flux (FLIPR) assay on cloned human NR1/NR2B ion channels expressed in mammalian cells). Details: standard assay; glutamate at ~EC80; FLIPR calcium flux.
Outline: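 Calcium influx followed by FLIPR fluorescence after 5 min compound exposure and a further 5 min co-agonist challenge: 10 μM glycine with glutamate at ~EC80 (standard) or EC40 (HTS).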

human GluN1/GluN2B NMDA receptors, sequence (Q13224 27-1484, other chains not shown): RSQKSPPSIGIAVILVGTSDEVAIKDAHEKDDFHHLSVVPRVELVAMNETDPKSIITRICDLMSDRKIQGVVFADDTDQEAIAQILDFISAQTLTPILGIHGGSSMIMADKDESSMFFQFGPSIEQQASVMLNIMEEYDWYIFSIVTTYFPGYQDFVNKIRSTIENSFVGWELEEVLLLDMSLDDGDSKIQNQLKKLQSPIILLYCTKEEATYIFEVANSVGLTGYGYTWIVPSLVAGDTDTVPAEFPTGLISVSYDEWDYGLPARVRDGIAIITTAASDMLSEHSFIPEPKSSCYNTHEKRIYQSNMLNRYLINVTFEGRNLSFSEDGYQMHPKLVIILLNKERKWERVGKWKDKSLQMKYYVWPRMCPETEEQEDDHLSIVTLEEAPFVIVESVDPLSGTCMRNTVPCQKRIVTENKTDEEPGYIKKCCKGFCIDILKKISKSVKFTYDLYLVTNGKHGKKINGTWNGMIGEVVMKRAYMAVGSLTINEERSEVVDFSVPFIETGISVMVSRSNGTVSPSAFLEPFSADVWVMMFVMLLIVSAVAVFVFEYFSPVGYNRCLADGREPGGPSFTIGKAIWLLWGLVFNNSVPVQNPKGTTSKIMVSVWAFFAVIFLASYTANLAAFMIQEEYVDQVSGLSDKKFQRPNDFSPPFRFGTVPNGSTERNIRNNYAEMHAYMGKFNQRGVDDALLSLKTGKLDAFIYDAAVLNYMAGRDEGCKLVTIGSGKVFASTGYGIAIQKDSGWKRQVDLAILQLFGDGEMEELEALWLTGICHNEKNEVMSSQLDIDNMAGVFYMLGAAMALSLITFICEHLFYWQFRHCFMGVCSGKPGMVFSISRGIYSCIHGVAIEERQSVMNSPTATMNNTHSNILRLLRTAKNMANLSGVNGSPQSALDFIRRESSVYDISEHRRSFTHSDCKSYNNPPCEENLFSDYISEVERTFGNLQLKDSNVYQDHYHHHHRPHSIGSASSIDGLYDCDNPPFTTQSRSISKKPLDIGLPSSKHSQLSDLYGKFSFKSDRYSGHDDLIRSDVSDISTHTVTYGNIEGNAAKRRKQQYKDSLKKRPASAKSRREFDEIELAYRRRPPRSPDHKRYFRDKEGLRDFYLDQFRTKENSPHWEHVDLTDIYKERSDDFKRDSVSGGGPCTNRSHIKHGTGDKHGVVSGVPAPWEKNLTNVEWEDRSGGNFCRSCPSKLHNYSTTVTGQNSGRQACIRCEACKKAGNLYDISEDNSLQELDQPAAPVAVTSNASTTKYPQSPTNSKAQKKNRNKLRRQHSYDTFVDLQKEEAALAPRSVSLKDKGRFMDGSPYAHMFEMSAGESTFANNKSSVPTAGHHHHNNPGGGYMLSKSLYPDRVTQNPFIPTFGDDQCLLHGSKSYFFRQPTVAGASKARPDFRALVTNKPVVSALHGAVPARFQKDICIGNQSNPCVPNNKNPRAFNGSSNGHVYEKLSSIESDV

Row | Structure (SMILES) | IC50 [µM]
1 | Cc1cc(OCc2cn(-c3ccc(F)c(C)c3)nn2)ncn1 [Example 462, 4-[[1-(4-Fluoro-3-methyl-phenyl)triazol-4-yl]methoxy]-6-methyl-pyrimidine] | 3.03
2 | Cc1c(F)cccc1-n1cc(COc2ncc(Cl)cn2)nn1 [Example 463, 5-Chloro-2-[[1-(3-fluoro-2-methyl-phenyl)triazol-4-yl]methoxy]pyrimidine] | 0.647
3 | Cc1cnc(OCc2cn(-c3cccc(F)c3C)nn2)nc1 [Example 464, 2-[[1-(3-Fluoro-2-methyl-phenyl)triazol-4-yl]methoxy]-5-methyl-pyrimidine] | 0.515
4 | Cc1nc(OCc2cn(-c3cccc(F)c3C)nn2)ncc1F [Example 465, 5-Fluoro-2-[[1-(3-fluoro-2-methyl-phenyl)triazol-4-yl]methoxy]-4-methyl-pyrimidine] | 3.72
5 | Cc1c(F)cccc1-n1cc(COc2ncc(C(C)(C)O)cn2)nn1 [Example 466, 2-[2-[[1-(3-Fluoro-2-methyl-phenyl)triazol-4-yl]methoxy]pyrimidin-5-yl]propan-2-ol] | 7.01
6 | Cc1cnc(OCc2cn(-c3cccc(C)c3F)nn2)nc1 [Example 467, 2-[[1-(2-Fluoro-3-methyl-phenyl)triazol-4-yl]methoxy]-5-methyl-pyrimidine] | 0.711
7 | Cc1cccc(-n2cc(COc3ncc(Cl)cn3)nn2)c1F [Example 468, 5-Chloro-2-[[1-(2-fluoro-3-methyl-phenyl)triazol-4-yl]methoxy]pyrimidine] | 1.25
8 | Cc1cccc(-n2cc(COc3ncc(C(F)(F)F)cn3)nn2)c1F [Example 469, 2-[[1-(2-Fluoro-3-methyl-phenyl)triazol-4-yl]methoxy]-5-(trifluoromethyl)pyrimidine] | 1.06
9 | Cc1cccc(-n2cc(COc3ncc(Cl)c(C)n3)nn2)c1F [Example 470, 5-Chloro-2-[[1-(2-fluoro-3-methyl-phenyl)triazol-4-yl]methoxy]-4-methyl-pyrimidine] | 0.659
10 | Cc1cccc(-n2cc(COc3ncc(OC(F)F)cn3)nn2)c1F [Example 471, 5-(Difluoromethoxy)-2-[[1-(2-fluoro-3-methyl-phenyl)triazol-4-yl]methoxy]pyrimidine] | 1.73
11 | Cc1cc(-n2cc(COc3nccc(N)n3)nn2)ccc1F [Example 472, 2-[[1-(4-Fluoro-3-methyl-phenyl)triazol-4-yl]methoxy]pyrimidin-4-amine] | 0.149
12 | Cc1cc(-n2cc(COc3ncccn3)nn2)ccc1F [Example 473, 2-[[1-(4-Fluoro-3-methyl-phenyl)triazol-4-yl]methoxy]pyrimidine] | 0.072
13 | Cc1cc(-n2cc(COc3ncc(F)cn3)nn2)ccc1F [Example 474, 5-Fluoro-2-[[1-(4-fluoro-3-methyl-phenyl)triazol-4-yl]methoxy]pyrimidine] | 0.022
14 | COCc1ccnc(OCc2cn(-c3ccc(F)c(C)c3)nn2)n1 [Example 479, 2-[[1-(4-Fluoro-3-methyl-phenyl)triazol-4-yl]methoxy]-4-(methoxymethyl)pyrimidine] | 0.036
15 | Cc1cc(-n2cc(COc3ncc(F)c(C)n3)nn2)ccc1F [Example 481, 5-Fluoro-2-[[1-(4-fluoro-3-methyl-phenyl)triazol-4-yl]methoxy]-4-methyl-pyrimidine] | 0.002
16 | Cc1cc(-n2cc(COc3ncc(OCCF)cn3)nn2)ccc1F [Example 483, 5-(2-Fluoroethoxy)-2-[[1-(4-fluoro-3-methyl-phenyl)triazol-4-yl]methoxy]pyrimidine] | 0.007

Row | Structure (SMILES) | IC50 [µM]
17 | Cc1cnc(OCc2cn(-c3cc(C)ccc3F)nn2)nc1 [Example 484, 2-[[1-(2-Fluoro-5-methyl-phenyl)triazol-4-yl]methoxy]-5-methyl-pyrimidine] | 1
18 | Cc1ccc(F)c(-n2cc(COc3ncc(Cl)c(C)n3)nn2)c1 [Example 485, 5-Chloro-2-[[1-(2-fluoro-5-methyl-phenyl)triazol-4-yl]methoxy]-4-methyl-pyrimidine] | 1.01
19 | Cc1ccc(F)c(-n2cc(COc3ncc(F)c(C)n3)nn2)c1 [Example 486, 5-Fluoro-2-[[1-(2-fluoro-5-methyl-phenyl)triazol-4-yl]methoxy]-4-methyl-pyrimidine] | > 2.99
20 | Cc1cc(F)ccc1-n1cc(COc2ncc(F)cn2)nn1 [Example 487, 5-Fluoro-2-[[1-(4-fluoro-2-methyl-phenyl)triazol-4-yl]methoxy]pyrimidine] | 16.2
21 | COc1cnc(OCc2cn(-c3ccc(F)cc3C)nn2)nc1 [Example 488, 2-[[1-(4-Fluoro-2-methyl-phenyl)triazol-4-yl]methoxy]-5-methoxy-pyrimidine] | 2.65
22 | Cc1cc(F)ccc1-n1cc(COc2ncc(Cl)cn2)nn1 [Example 489, 5-Chloro-2-[[1-(4-fluoro-2-methyl-phenyl)triazol-4-yl]methoxy]pyrimidine] | 4.42
23 | Cc1cnc(OCc2cn(-c3ccc(F)cc3C)nn2)nc1 [Example 490, 2-[[1-(4-Fluoro-2-methyl-phenyl)triazol-4-yl]methoxy]-5-methyl-pyrimidine] | 2.44
24 | CCc1cnc(OCc2cn(-c3ccc(F)cc3C)nn2)nc1 [Example 491, 5-Ethyl-2-[[1-(4-fluoro-2-methyl-phenyl)triazol-4-yl]methoxy]pyrimidine] | 1.17
25 | Fc1cnc(OCc2cn(-c3ccc(F)c(OC(F)F)c3)nn2)nc1 [Example 492, 2-[[1-[3-(Difluoromethoxy)-4-fluoro-phenyl]triazol-4-yl]methoxy]-5-fluoro-pyrimidine] | 0.026
26 | Cc1nc(OCc2cn(-c3ccc(F)c(OC(F)F)c3)nn2)ncc1F [Example 493, 2-[[1-[3-(Difluoromethoxy)-4-fluoro-phenyl]triazol-4-yl]methoxy]-5-fluoro-4-methyl-pyrimidine] | 0.004
27 | CCc1ccnc(OCc2cn(-c3ccc(F)c(OC(F)F)c3)nn2)n1 [Example 495, 2-f[[1-[3-(Difluoromethoxy)-4-fluoro-phenyl]triazol-4-yl]methoxy]-4-ethyl-pyrimidine] | 0.01
28 | CC(C)c1ccnc(OCc2cn(-c3ccc(F)c(OC(F)F)c3)nn2)n1 [Example 496, 2-[[1-[3-(Difluoromethoxy)-4-fluoro-phenyl]triazol-4-yl]methoxy]-4-isopropyl-pyrimidine] | 0.114
29 | COc1ccnc(OCc2cn(-c3ccc(F)c(OC(F)F)c3)nn2)n1 [Example 497, 2-[[1-[3-(Difluoromethoxy)-4-fluoro-phenyl]triazol-4-yl]methoxy]-4-methoxy-pyrimidine] | 0.028
30 | OCc1ccnc(OCc2cn(-c3ccc(F)c(OC(F)F)c3)nn2)n1 [Example 498, [2-[[1-[3-(Difluoromethoxy)-4-fluoro-phenyl]triazol-4-yl]methoxy]pyrimidin-4-yl]methanol] | 0.019
31 | COCc1ccnc(OCc2cn(-c3ccc(F)c(OC(F)F)c3)nn2)n1 [Example 499, 2-[[1-[3-(Difluoromethoxy)-4-fluoro-phenyl]triazol-4-yl]methoxy]-4-(methoxymethyl)pyrimidine] | 0.016
32 | CC(C)(O)c1cnc(OCc2cn(-c3ccc(F)c(OC(F)F)c3)nn2)nc1 [Example 500, 2-[2-[[1-[3-(Difluoromethoxy)-4-fluoro-phenyl]triazol-4-yl]methoxy]pyrimidin-5-yl]propan-2-ol] | 0.068
